Assay results reported in US11172676B2, “Antibacterial resin composition” (TOYO SEIKAN GROUP HOLDINGS, LTD., priority 2011, dated 2021).

Conditions: JIS Z 7260-107

O=C1NS(=O)(=O)c2ccccc21.[Ag] [saccharin silver]
silver concentrations eluted out in 1-octanol or in water (hydrophilic and oleophilic property): hydrophilic property and oleophilic property which are both superior to those of silver stearate, phthalazone silver or benzotriazole silver
